Test results: patent US12552772B2, “2-pyrazole anilines and related analogs for inhibiting YAP/TAZ-TEAD” (KATHOLIEKE UNIVERSITEIT LEUVEN, priority 2021, dated 2026)

Assays:
H2452 = test: Mesothelioma cell line proliferation assay, H2452; type: cell-based; conditions: Homo sapiens, NCI-H2452; H2452 cells
NCI-H226 = test: Mesothelioma cell line proliferation assay (ATPlite), NCI-H226; type: cell-based; conditions: Homo sapiens, 144 h; NCI-H226 cells, 6 days, ATPlite cell viability
Method in brief: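 Mesothelioma cells seeded at 1500 cells/well in RPMI 1640 with 10% FBS, incubated overnight, then treated with compound dose-response in DMSO for 6 days at 37° C, 5% CO2. Viability read by ATPlite luminescence; percent inhibition used to derive EC50.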

[1] = system: YAP/TAZ-TEAD transcription; test: Reporter gene assay for measuring the inhibition of YAP/TAZ-TEAD transcription (TEAD-responsive element luciferase reporter in Hek293T cells); type: cell-based; conditions: Homo sapiens, HEK-293T, 24 hours incubation
Method in brief: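 Hek293T cells transiently transfected with a TEAD-responsive element luciferase reporter were plated onto compounds and incubated 24 h at 37 °C/5% CO2. SteadyLite luminescence gave percent inhibition, normalised to vehicle (0%) and positive control inhibitor (100%); EC50 derived.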

[2] = system: NF2 mutant mesothelioma cell lines; conditions: NF2 mutant mesothelioma cell lines (but not WT mesothelioma); cited from earlier work
YAP = conditions: mouse models of YAP-driven tumorigenesis; cited from earlier work

Row | Compound | EC50 (H2452) [µM] | EC50 (NCI-H226) [µM] | EC50 [1] [µM] | sensitivity of YAP-TEAD transcription [2] | sensitivity of viability [2] | suppression of the oncogenic activity of YAP (YAP)
1 | CNS(=O)(=O)CCNc1ccc(-c2ccc(C(F)(F)F)cc2)cc1-c1ccn(C)n1 [compound 118, N-methyl-2-((3-(1-methyl-1H-pyrazol-3-yl)-4′-(trifluoromethyl)-[1,1′-biphenyl]-4-yl)amino)ethane-1-sulfonamide] | > 10 | 1 to 10 | < 1 | – | – | –
2 | CNS(=O)(=O)CCNc1ccc(-c2cccc(F)c2)cc1-c1ccn(C)n1 [compound 119, 2-((3′-fluoro-3-(1-methyl-1H-pyrazol-3-yl)-[1,1′-biphenyl]-4-yl)amino)-N-methylethane-1-sulfonamide] | > 10 | > 10 | < 1 | – | – | –
3 | CNS(=O)(=O)CCNc1ccc(-c2ccc(F)c(F)c2)cc1-c1ccn(C)n1 [compound 124] | > 10 | 1 to 10 | < 1 | – | – | –
4 | verteporfin | – | – | – | sensitive | sensitive | significantly suppressed the oncogenic activity of YAP
